Measured values: the NIST ThermoML archive (doi:10.1016/j.tca.2013.09.017)

Columns and labels:
[1] = mn = molality of the nth substance listed, in mol/kg; conditions: 298.15 K, 101 kPa, Liquid; for speed of sound: Sing-around technique in a fixed-path interferometer; for mass density: Vibrating tube method
[2] = 298.15 K, 101.33 kPa, Liquid; for speed of sound: Sing-around technique in a fixed-path interferometer; for mass density: Vibrating tube method

CN1CCCC1=O [N-methylpyrrolidone] + C1CCCCC1
[1]
Conditions	mass density [kg/m3]	speed of sound [m/s]
m1 = 0.0792	774.81	1256
m1 = 0.1648	776.26	1256.8
m1 = 0.2385	777.5	1257.6
m1 = 0.3142	778.77	1258.3
m1 = 0.3925	780.08	1258.7

CN1CCCC1=O [N-methylpyrrolidone] + CCCCCCC
[1]
Conditions	mass density [kg/m3]	speed of sound [m/s]
m1 = 0.0859	681.45	1133.1
m1 = 0.1879	683.75	1135
m1 = 0.2695	685.56	1136.4
m1 = 0.3576	687.51	1137.7
m1 = 0.4488	689.49	1139.2

CN1CCCC1=O [N-methylpyrrolidone] + CCCCO
[1]
Conditions	mass density [kg/m3]	speed of sound [m/s]
m1 = 0.0846	807.27	1243
m1 = 0.1506	808.43	1244.6
m1 = 0.23	809.82	1245.8
m1 = 0.2953	810.94	1247.7
m1 = 0.3712	812.24	1249.6

CN1CCCC1=O [N-methylpyrrolidone] + CCCO
[1]
Conditions	mass density [kg/m3]	speed of sound [m/s]
m1 = 0.0757	801.03	1209.1
m1 = 0.1611	802.58	1211.6
m1 = 0.2275	803.78	1213.4
m1 = 0.3064	805.2	1215.6
m1 = 0.381	806.51	1217.6

CN1CCCC1=O [N-methylpyrrolidone] + CCO
[1]
Conditions	mass density [kg/m3]	speed of sound [m/s]
m1 = 0.077	786.74	1146.8
m1 = 0.1554	788.32	1149.3
m1 = 0.2349	789.86	1151.9
m1 = 0.3089	791.28	1154
m1 = 0.388	792.78	1156.5

CN1CCCC1=O [N-methylpyrrolidone] + CO
[1]
Conditions	mass density [kg/m3]	speed of sound [m/s]
m1 = 0.0786	788.33	1106.3
m1 = 0.1588	789.97	1109
m1 = 0.2275	791.35	1111.2
m1 = 0.3082	792.96	1114
m1 = 0.3854	794.5	1116.6

CN1CCCC1=O [N-methylpyrrolidone] + O
[1]
Conditions	mass density [kg/m3]	speed of sound [m/s]
m1 = 0.0621	997.34	1500.7
m1 = 0.1225	997.63	1504.4
m1 = 0.1806	997.92	1507.8
m1 = 0.2399	998.21	1511.4
m1 = 0.3036	998.54	1515.1

CCCCO [butan-1-ol]
[2]
Conditions	mass density [kg/m3]	speed of sound [m/s]
–	805.72	1240.5

C1CCCCC1 [cyclohexane]
[2]
Conditions	mass density [kg/m3]	speed of sound [m/s]
–	773.82	1255

CCO [ethanol]
[2]
Conditions	mass density [kg/m3]	speed of sound [m/s]
–	785.22	1145.2

CCCCCCC [heptane]
[2]
Conditions	mass density [kg/m3]	speed of sound [m/s]
–	679.51	1131.4

CO [methanol]
[2]
Conditions	mass density [kg/m3]	speed of sound [m/s]
–	786.66	1103.4

CCCO [propan-1-ol]
[2]
Conditions	mass density [kg/m3]	speed of sound [m/s]
–	799.58	1206.7
